The values that follow come from patent US20250084063A1 (Incyte Corporation, priority 2023, published 2025).

The IC50 is the midpoint of a concentration-inhibition curve. Low values mean inhibition by little substance, high ones a need for much substance.

The target in assay [1] is T1, MRGPRX2 (Homo sapiens, UniProt Q96LB1).
T1 sequence (Q96LB1 1-330): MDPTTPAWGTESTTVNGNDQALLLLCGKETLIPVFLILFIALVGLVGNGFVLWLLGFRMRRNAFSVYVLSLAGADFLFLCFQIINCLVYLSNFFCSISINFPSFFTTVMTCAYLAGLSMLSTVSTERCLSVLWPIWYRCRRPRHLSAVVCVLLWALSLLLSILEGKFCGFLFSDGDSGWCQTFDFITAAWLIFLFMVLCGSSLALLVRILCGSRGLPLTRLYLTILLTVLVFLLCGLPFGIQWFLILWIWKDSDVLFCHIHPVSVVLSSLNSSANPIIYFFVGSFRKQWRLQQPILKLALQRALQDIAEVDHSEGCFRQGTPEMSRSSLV
In words: MRGPRX2 β-Arrestin assay. Format: cell-based. On the set-up: host or cells: PathHunter CHO-K1. To be noted: PathHunter CHO-K1 MRGPRX2 β-Arrestin cell line; agonist Cortistatin 14 0.25 μM. The source says:
Example C: MRGPRX2 β-Arrestin Assay
This assay measures compound inhibition of β-Arrestin recruitment, which is part of the G protein-independent pathway that results from the ligand-activated GPCR phosphorylation by specific GPCR kinases. The PathHunter CHO-K1 MRPGRX2 B-Arrestin Cell line stably expressing ProLink tagged MRGPRX2 and Enzyme Acceptor Tagged B-Arrestin was purchased from Eurofins DiscoverX, (Fremont, CA).
The cells were maintained in culture medium from the Europhins DiscoverX Cell Culture Kit-107 which includes FBS, hygromycin B and G418. For the assay, the cells were harvested and were resuspended with Cell Plating Reagent 2 (Eurofins DiscoverX). Cells were added 10000 cells in 25 µL/well to a 384-well black cell culture plate (Greiner VWR, Radnor, PA) which contained 125 nL/well of compound at a selected serially diluted concentration range or DMSO. The plate was incubated at 37° C. with 5% CO2 for 1 h. 2 μL/well of agonist Cortistatin 14 was diluted in Protein Dilution Buffer, (Eurofins DiscoverX) for a final concentration of 0.25 μM, was added and the plate was incubated at 37° C. with 5% CO2 for 90 min. 14 μL/well of Detection Reagent Mix (PathHunter Detection Kit, Eurofins DiscoverX) was added to the plates and further incubated for 1 h in the dark. Plates were read on the PHERAstar microplate reader (BMG Labtech Cary, NC) measuring luminescence 0.1 to 1 second per well. Data was normalized using DMSO only wells and wells with high concentration of reference antagonist as controls. Compound IC50 curves were globally fitted with 3- or 4-parameter Hill equation in a Genedata Screener (Genedata Basel, Switzerland).

The target in assay [2] is T1, MRGPRX2. In words: MRGPRX2 IP1 HTRF assay. It is filed as cell-based. Set-up: host or cells: CHO-K1. To be noted: CHO-K1 cells stably expressing human MRGPRX2; IP1 accumulation, agonist Cortistatin 14 1 μM. An excerpt:
Example B: MRGPRX2 IP1 HTRF Assay
This assay measures compound inhibition of myo-Inositol 1 phosphate (IP1) accumulation in CHO-K1 cells. Chinese hamster ovary (CHO-K1) cells stably expressing human MRGPRX2 were purchased from GenScript (Piscataway, NJ).
For the HTRF IP1 determination, an IP-One GqKit (Perkin Elmer Cisbio, Waltham, MA), which includes all reagents and buffers in this protocol, was used. The cells were maintained in culture medium (Ham's F-12K) containing 10% (v/v) FBS, and 200 μg/mL Zeocin. For the assay, the cells were harvested and resuspended in culture medium with 2% FBS and without Zeocin, then were passed through a 40 μm filter. Cells were added at 20000 cells in a 5 μL/well to a 384-well white small volume cell culture plate (Greiner VWR, Radnor, PA) which contained 50 nL/well of test compound serially diluted at a selected concentration range in DMSO. 5 μL/well of prepared 2× Stimulation Buffer2 was then added to plates and was incubated at 37° C. with 5% CO2 for 1 h. 5 μL/well of agonist Cortistatin 14 (Bio-TechneR&D Systems, Minneapolis, MN) in 1× Stimulation Buffer 2, for a 1 μM final concentration, was then added to plates and incubated at 37° C. with 5% CO2 for 1 h. 6 μL/well of 1:20 diluted Detection Reagent Mix (d2 and Cryptate) was added to the plates and incubated for 1 h in the dark. Plates were read on the PHERAstar microplate reader (BMG Labtech Cary, NC) to determine the HTRF ratio of the acceptor and donor emission signals. The IP1 concentrations were calculated from a standard curve following the IP-One GQ kit instructions. Wells with DMSO only and wells with high concentration of reference antagonist were used as controls for normalization. Compound IC50 curves were globally fitted with 3- or 4-parameter Hill equation in a Genedata Screener (Genedata Basel, Switzerland).

Molecules are shown by their SMILES.

For the compound `OC1(C(F)(F)F)CC(CNc2cc(C(F)(F)F)nc3ccc(Cl)cc23)(c2ccccc2)C1` (stereo not drawn) [Example 66, 3-(((6-Chloro-2-(trifluoromethyl)quinolin-4-yl)amino)methyl)-3-phenyl-1-(trifluoromethyl)cyclobutan-1-ol], the IC50 at MRGPRX2 [1] and at MRGPRX2 [2] was 0.1 to 100 nM throughout.
For the compound `O=C(O)C1CCC(CNc2cc(C(F)(F)F)nc3ccc(Cl)cc23)(c2ccccc2)CC1` (stereo not drawn) [Example 67, 4-(((6-Chloro-2-(trifluoromethyl)quinolin-4-yl)amino)methyl)-4-phenylcyclohexane-1-carboxylic acid], the half-maximal inhibitory concentration (IC50) on MRGPRX2 [1] and on MRGPRX2 [2] was 0.1 to 100 nM throughout.
Regarding `NS(=O)(=O)NC1CC(CNc2cc(C(F)(F)F)nc3ccc(Cl)cc23)(c2ccccc2)C1` (stereo not drawn) [Example 73, N-((3-Aminosulfonylamino-1-phenylcyclobutyl)methyl)-6-chloro-2-(trifluoromethyl)quinolin-4-amine], the IC50 on MRGPRX2 [1] and at MRGPRX2 [2] was 0.1 to 100 nM each time.
With `NC(=O)C1(C(=O)NC2CC(CNc3cc(C(F)(F)F)nc4ccc(Cl)cc34)(c3ccccc3)C2)CC1` (stereo not drawn) [Example 74, N-(3-(((6-Chloro-2-(trifluoromethyl)quinolin-4-yl)amino)methyl)-3-phenylcyclobutyl)cyclopropane-1,1-dicarboxamide], the IC50 on MRGPRX2 [1] and at MRGPRX2 [2] was 0.1 to 100 nM throughout.
For the compound `O=C(N[C@H]1C[C@H](O)C1)N1CCC(CNc2cc(C(F)(F)F)nc3ccc(Cl)cc23)(c2ccc(F)cc2)CC1` [Example 86, 4-(((6-Chloro-2-(trifluoromethyl)quinolin-4-yl)amino)methyl)-4-(4-fluorophenyl)-N-((1r,3r)-3-hydroxycyclobutyl) piperidine-1-carboxamide], the IC50 on MRGPRX2 [1] and at MRGPRX2 [2] was 0.1 to 100 nM each time.
Turning to `O=C(N[C@H]1CC[C@H](O)CC1)N1CCC(CNc2cc(C(F)(F)F)nc3ccc(Cl)cc23)(c2ccc(F)cc2)CC1` [Example 87, 4-(((6-Chloro-2-(trifluoromethyl)quinolin-4-yl)amino)methyl)-4-(4-fluorophenyl)-N-((1r,4r)-4-hydroxycyclohexyl) piperidine-1-carboxamide], the IC50 on MRGPRX2 [1] and at MRGPRX2 [2] was 0.1 to 100 nM throughout.
Take `O=C(N[C@H]1CC[C@H](O)CC1)N1CC(CNc2cc(C(F)(F)F)nc3ccc(Cl)cc23)(n2cc(F)cn2)C1` [Example 88, 3-(((6-Chloro-2-(trifluoromethyl)quinolin-4-yl)amino)methyl)-3-(4-fluoro-1H-pyrazol-1-yl)-N-((1r,4r)-4-hydroxycyclohexyl)azetidine-1-carboxamide]: the IC50 on MRGPRX2 [1] and at MRGPRX2 [2] was 0.1 to 100 nM each time.
In the case of `C[C@]1(O)CC[C@@H](NC(=O)N2CC(CNc3cc(C(F)(F)F)nc4ccc(Cl)cc34)(n3cc(F)cn3)C2)CC1` [Example 89, 3-(((6-Chloro-2-(trifluoromethyl)quinolin-4-yl)amino)methyl)-3-(4-fluoro-1H-pyrazol-1-yl)-N-((1s,4s)-4-hydroxy-4-methylcyclohexyl)azetidine-1-carboxamide], the IC50 at MRGPRX2 [1] and on MRGPRX2 [2] was 0.1 to 100 nM in each case.
Regarding `O=C(N[C@@H]1CC[C@@H](O)C1)N1CC(CNc2cc(C(F)(F)F)nc3ccc(Cl)cc23)(c2ccc(F)cc2)C1` [Example 90, 3-(((6-Chloro-2-(trifluoromethyl)quinolin-4-yl)amino)methyl)-3-(4-fluorophenyl)-N-((1R,3R)-3-hydroxycyclopentyl)azetidine-1-carboxamide], the IC50 at MRGPRX2 [1] and on MRGPRX2 [2] was 0.1 to 100 nM in each case.
Turning to `N#C[C@H]1CC[C@H](NC(=O)N2CC(CNc3cc(C(F)(F)F)nc4ccc(Cl)cc34)(c3ccc(F)cc3)C2)CC1` [Example 91, 3-(((6-Chloro-2-(trifluoromethyl)quinolin-4-yl)amino)methyl)-N-((1r,4r)-4-cyanocyclohexyl)-3-(4-fluorophenyl)azetidine-1-carboxamide], the IC50 at MRGPRX2 [1] and on MRGPRX2 [2] was 0.1 to 100 nM each time.
Take `Fc1ccc(C2(CNc3cc(C(F)(F)F)nc4ccc(Cl)cc34)CN(Cc3cn[nH]c3)C2)cc1` [Example 93, N-((1-((1H-Pyrazol-4-yl)methyl)-3-(4-fluorophenyl)azetidin-3-yl)methyl)-6-chloro-2-(trifluoromethyl)quinolin-4-amine]: the IC50 on MRGPRX2 [1] and on MRGPRX2 [2] was 0.1 to 100 nM throughout.
`Cc1nc(CN2CC(CNc3cc(C(F)(F)F)nc4ccc(Cl)cc34)(c3ccc(F)cc3)C2)c[nH]1` [Example 94, 6-Chloro-N-((3-(4-fluorophenyl)-1-((2-methyl-1H-imidazol-4-yl)methyl)azetidin-3-yl)methyl)-2-(trifluoromethyl)quinolin-4-amine]: the IC50 at MRGPRX2 [1] and at MRGPRX2 [2] was 0.1 to 100 nM each time.
On to `[O-][n+]1ccc(CN2CC(CNc3cc(C(F)(F)F)nc4ccc(Cl)cc34)(c3ccc(F)cc3)C2)cc1` [Example 95, 4-((3-(((6-Chloro-2-(trifluoromethyl)quinolin-4-yl)amino)methyl)-3-(4-fluorophenyl)azetidin-1-yl)methyl)pyridine 1-oxide], for which the IC50 on MRGPRX2 [1] and at MRGPRX2 [2] was 0.1 to 100 nM throughout.
For the compound `NC1CC(CNc2cc(C(F)(F)F)nc3ccc(Cl)cc23)(c2ccccc2)C1` (stereo not drawn) [Example 96, N-((3-Amino-1-phenylcyclobutyl)methyl)-6-chloro-2-(trifluoromethyl)quinolin-4-amine], the IC50 at MRGPRX2 [1] and on MRGPRX2 [2] was 0.1 to 100 nM in each case.
As to `[2H]C([2H])([2H])NC(=O)N1CC(CNc2cc(C(F)(F)F)nc3ccc(Br)cc23)(n2cc(F)cn2)C1` [Example 97, 3-(((6-Bromo-2-(trifluoromethyl)quinolin-4-yl)amino)methyl)-3-(4-fluoro-1H-pyrazol-1-yl)-N-(methyl-d3)azetidine-1-carboxamide], the IC50 at MRGPRX2 [1] and on MRGPRX2 [2] was 0.1 to 100 nM throughout.
